Source: article PMC9184620, “TAS1553, a small molecule subunit interaction inhibitor of ribonucleotide reductase, exhibits antitumor activity by causing DNA replication stress” (Communications Biology, 2022)

Tests used:
[1] = target: T1, RNR (R1 and R2 recombinant proteins) (Homo sapiens, UniProt P23921); test: RNR assay (formation of dCDP from CDP); format: biochemical; settings: CDP to dCDP; mean ± SD; read-out: Enzyme IC50
T1 construct: made in house; host or cells: Escherichia coli
T1 sequence (P23921 1-792): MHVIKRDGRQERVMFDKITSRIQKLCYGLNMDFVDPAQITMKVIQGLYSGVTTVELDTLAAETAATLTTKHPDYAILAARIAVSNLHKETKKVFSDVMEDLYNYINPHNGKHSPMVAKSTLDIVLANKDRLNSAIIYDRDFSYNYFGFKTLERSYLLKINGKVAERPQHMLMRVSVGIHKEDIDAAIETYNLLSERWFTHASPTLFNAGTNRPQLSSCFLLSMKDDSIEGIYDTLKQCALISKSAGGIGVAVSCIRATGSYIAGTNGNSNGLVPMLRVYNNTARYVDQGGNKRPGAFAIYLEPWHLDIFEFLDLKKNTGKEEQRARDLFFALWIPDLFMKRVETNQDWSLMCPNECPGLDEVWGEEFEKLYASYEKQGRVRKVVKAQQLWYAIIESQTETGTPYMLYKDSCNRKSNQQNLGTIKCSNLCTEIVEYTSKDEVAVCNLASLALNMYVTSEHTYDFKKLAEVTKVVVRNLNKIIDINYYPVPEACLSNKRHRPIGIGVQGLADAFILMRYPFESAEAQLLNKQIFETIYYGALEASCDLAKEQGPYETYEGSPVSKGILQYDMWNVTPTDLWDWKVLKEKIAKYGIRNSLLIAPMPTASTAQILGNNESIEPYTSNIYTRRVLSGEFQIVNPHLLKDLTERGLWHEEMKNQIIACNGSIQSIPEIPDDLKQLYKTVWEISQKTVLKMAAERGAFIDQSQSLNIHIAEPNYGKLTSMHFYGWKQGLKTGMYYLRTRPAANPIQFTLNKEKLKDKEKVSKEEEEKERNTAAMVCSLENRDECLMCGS
Procedure: The binding affinity of TAS1553 to the R1 subunit was investigated using surface plasmon resonance (SPR) binding analysis. […] Next, we evaluated the inhibitory effect of TAS1553 against the enzymatic activity of RNR, consisting of R1 and R2 recombinant proteins. RNR activity was determined by its ability to reduce cytidine diphosphate (CDP) to deoxycytidine diphosphate (dCDP), based on a previous report. […] In addition to the inhibitory effect on RNR, TAS1553 was evaluated in a Eurofins LeadProfilingScreen panel assay including 68 proteins, such as ion channels, transporters, nuclear receptors, and G protein-coupled receptors, to examine its potential adverse activity.
The inhibition of RNR activity by the test compound was evaluated by measuring the formation of dCDP from CDP, as reported previously. The assay was performed for 30 min at 37 °C in a reaction mixture composed of 50 mmol/L HEPES, 4 mmol/L magnesium acetate, 100 mmol/L KCl, 6 mmol/L DTT, 2 mmol/L ATP, 0.24 mmol/L NADPH, 10.0 µmol/L CDP, 0.1 mg/mL BSA, 8.0 µg/mL His-R1, 2.4 µg/mL His-R2, and 1% DMSO with or without test compound. The reaction was discontinued by heat treatment at 95 °C for 5 min. The amount of dCDP after the reaction was quantified by a prominence HPLC system and LabSolutions software (SHIMADZU CORPORATION). Separations were performed at 265 nm in a Shim-pack XR-ODS column of particle size 2.2 μm (100 × 3.0 mm, SHIMADZU GLC Ltd.). Overall, 5 µL of each sample was injected, and chromatography was performed at 40 °C. Mobile A was composed of 10 mmol/L potassium dihydrogenphosphate, 10 mmol/L tetrabutylammonium hydroxide, 0.25% methanol and 8 mmol/L HCl. Mobile B was composed of 50 mmol/L potassium dihydrogenphosphate, 5.6 mmol/L tetrabutylammonium hydroxide, and 30% methanol. The gradient was as follows: 52–60% B for 9 min, 60–99% B for 1 min, 99% B for 5 min, 99–52% B for 1 min, and 52% B for 5 min. The flow rate was 0.5 mL/min. The experiment was performed in triplicates. IC50 values were calculated using the SAS software package.

[2] = Plasma exposure in rats; settings: nude rats
Procedure: First, we analyzed the exposure of TAS1553 when administered orally.
(§1) Next, we evaluated the antitumor activity of a high-dose administration of TAS1553 and cytarabine in rats bearing MV-4-11 xenografts. […] The rats were treated with cytarabine for 5 days at 16 and 32 mg/kg. […] In addition to the hematologic tumor, we evaluated the antitumor activity of TAS1553 in mice implanted with HCC38 cell line as a solid tumor model. […] Finally, TAS1553 was evaluated for its survival benefit in a mouse model. To achieve this, we established mice bone marrow cells harboring the human MLL-AF9 fusion gene, which is known as a driver gene for AML in humans as well as mice[48]. Mice were transplanted with the cells through the tail vein and the treatment with TAS1553 was started 11 days post-implantation.
F344/NJcl-rnu/rnu rats were orally administered with TAS1553 (two animals per group). The plasma samples were collected at each point. TAS1553 concentrations in plasma were measured with the LC-MS/MS.

[3] = test system: MLL-AF9 AML cells; test: Survival in systemic AML model (mice bone marrow cells harboring human MLL-AF9 fusion gene); format: in vivo, mouse; settings: 100 mg/kg daily
Procedure: as §1

[4] = test system: human solid and hematological cancer cell lines; test: Cell proliferation assay (CellTiter-Glo), cell line panel; format: cell-based; settings: 72 h, range over solid and hematological cancer cell lines, 3 days exposure
Procedure: The growth inhibitory effect of TAS1553 was determined by calculating the GI50 value against human solid and hematological cancer cell lines.
(§2) Cell proliferation assay was performed as reported previously. Briefly, cells were plated and incubated for 1 day, followed by 3 days of exposure to the compound. After compound exposure, viable cells were detected by using the CellTiter-Glo luminescent cell viability assay (Promega). GI50 values were calculated using the SAS software package. The experiment was performed in triplicates.

[5] = test system: MV-4-11 cells; test: Cell proliferation assay (CellTiter-Glo), MV-4-11; format: cell-based; settings: Homo sapiens, MV4-11, 72 h; MV-4-11, 3 days exposure
Procedure: Next, we evaluated both concentration-dependent and time-dependent effects of TAS1553 on the dATP pool in HCC38 and MV-4-11 cell lines using absolute quantification. After 2 h of TAS1553 exposure, there was a concentration-dependent reduction of intracellular dATP pool in both cell lines (Fig. 2c). Furthermore, the intracellular dATP pool was reduced within 30 minutes when treated with TAS1553 at 1 or 10 µmol/L in both cell lines (Fig. 2d), consistent with its inhibitory effect on the protein-protein interaction (Fig. 2a).
as §2

Compound: Cc1ccc(F)c([C@@H](C)[C@H](NS(=O)(=O)c2ccc(Cl)cc2C(N)=O)c2n[nH]c(=O)o2)c1C [TAS1553, 5-chloro-2-{N-[(1S,2R)-2-(6-fluoro-2,3-dimethylphenyl)-1-(5-oxo-4,5-dihydro-1,3,4-oxadiazol-2-yl)propyl]sulfamoyl}benzamide]
- IC50 [1]: 54.2 ± 6.1 nM
- plasma concentration after single oral dose [2]: dose-dependent rise
- median survival time ([3]; start 11 days post-implantation): 75.5 days
- increase in the life span ([3]; versus control): 34.8%
- GI50 [4]: 228 to 4150 nM
- GI50 [5]: 393 nM
